Results as given in BigSolDB 2.1.

Cc1ccc(C(=O)O)cc1
solubility (mole fraction)
Conditions	278.15 K	283.15 K	288.15 K	293.15 K	298.15 K	303.15 K	308.15 K	313.15 K	318.15 K	323.15 K
in acetone	0.0354	0.041	0.0469	0.0544	0.062	0.0728	0.0838	0.0943	0.11	0.125
in acetonitrile	0.00596	0.0068	0.00776	0.0087	0.00976	0.0112	0.0127	0.0146	0.0163	0.0187
in ethanol	0.0272	0.0308	0.0346	0.0396	0.0442	0.05	0.0549	0.0603	0.0684	0.0765
in isopropanol	0.0397	0.0437	0.0488	0.0528	0.0588	0.0648	0.0715	0.0779	0.0868	0.0959
in methanol	0.0354	0.041	0.0485	0.0568	0.0636	0.0744	0.0865	0.0999	0.115	0.132
in n-butanol	0.0359	0.0396	0.0444	0.051	0.0578	0.0651	0.0735	0.0836	0.094	0.105
